Measurements published in patent publication US5712300A, “Hydroxamic acid derivatives useful for the treatment of diseases related to connective tissue degradation” (priority 1997, dated 1998).

What was measured:
Assay type in all cases: biochemical
[1] = target: Stromelysin (Homo sapiens, UniProt P08254); assay: MMP inhibition by particle concentration fluorescence technique (stromelysin); details: pH 7.5; 15 min enzyme preincubation; substrate 1-3 h at room temperature; read-out: MMP Inhibition Constants, Stromelysin Ki
How it was run: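 Fluorescein- and biotin-labelled substrate captured on avidin particles after reaction; intact, uncleaved substrate retains fluorescence, so signal rises with inhibition. Activated enzyme incubated with two-fold serial compound dilutions 15 minutes at room temperature.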

[2] = target: Gelatinase; assay: MMP inhibition by particle concentration fluorescence technique (gelatinase); details: pH 7.5; 15 min enzyme preincubation; substrate 1-3 h at room temperature; read-out: MMP Inhibition Constants, Gelatinase Ki
How it was run: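 Compound serially diluted two-fold in 50 mM Tris-HCl pH 7.5, 150 mM NaCl, preincubated 15 min with activated enzyme at room temperature. Fluorescein/biotin-tagged substrate then added for 1-3 hours in the dark. Intact substrate captured on avidin-coated particles; fluorescence signal indicates inhibition.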

[3] = target: T1, Collagenase (Homo sapiens, UniProt P03956); assay: MMP inhibition by particle concentration fluorescence technique (collagenase); details: pH 7.5; 15 min enzyme preincubation; substrate 1-3 h at room temperature; read-out: MMP Inhibition Constants, Collagenase Ki
T1 sequence (P03956 100-469): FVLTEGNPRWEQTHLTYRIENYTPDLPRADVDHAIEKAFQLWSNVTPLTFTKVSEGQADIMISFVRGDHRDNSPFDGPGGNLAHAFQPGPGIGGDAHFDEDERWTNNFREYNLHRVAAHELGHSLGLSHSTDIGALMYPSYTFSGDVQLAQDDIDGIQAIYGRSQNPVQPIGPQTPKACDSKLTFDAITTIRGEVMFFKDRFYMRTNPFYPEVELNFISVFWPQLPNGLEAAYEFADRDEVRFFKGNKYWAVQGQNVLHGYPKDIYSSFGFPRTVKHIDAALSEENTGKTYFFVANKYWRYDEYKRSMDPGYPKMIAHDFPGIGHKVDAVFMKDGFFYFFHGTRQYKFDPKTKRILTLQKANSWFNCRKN
Protocol: Inhibitory activity is evaluated in one or more of the MMP enzymes (stromelysin, gelatinase, and collagenase) in vitro using a particle concentration fluorescence techniques. An inhibitor binds to MMP enzymes prevents the degradation of a substrate of stromelysin, gelatinase, or collagenase. The substrate is attached with a fluorescein and a biotin. The intact substrate then binds to an avidin-coated particle via the biotin moiety. Once the particle is washed and dried, a fluorescent signal is generated since the fluorescent group is attached to the particle. Without an inhibitor present, the substrate is degraded by MMP enzymes and the fluorescein group is removed, therefore, no fluorescent signal can be detected. Testing compounds are dissolved in DMSO to the desired concentration, then the solutions are diluted to 1:5 with MMP buffer (50 mM Tris-HCl, pH 7.5; 150 mM NaCl; 0.02% NAN3). Serial two-fold dilutions of each compound are prepared. A concentrated, activated enzyme solution is transferred into each plate of the testing compounds, and the mixture is incubated at room temperature for 15 minutes. Thawed MMP substrate is then added into all plates, and the plates are incubate in the dark for 1-3 hours at room temperature. At this point, the substrate mixture is reacted with 0.1% avidin-coated polystyrene particles.

Chain of Stromelysin (P08254 100-477): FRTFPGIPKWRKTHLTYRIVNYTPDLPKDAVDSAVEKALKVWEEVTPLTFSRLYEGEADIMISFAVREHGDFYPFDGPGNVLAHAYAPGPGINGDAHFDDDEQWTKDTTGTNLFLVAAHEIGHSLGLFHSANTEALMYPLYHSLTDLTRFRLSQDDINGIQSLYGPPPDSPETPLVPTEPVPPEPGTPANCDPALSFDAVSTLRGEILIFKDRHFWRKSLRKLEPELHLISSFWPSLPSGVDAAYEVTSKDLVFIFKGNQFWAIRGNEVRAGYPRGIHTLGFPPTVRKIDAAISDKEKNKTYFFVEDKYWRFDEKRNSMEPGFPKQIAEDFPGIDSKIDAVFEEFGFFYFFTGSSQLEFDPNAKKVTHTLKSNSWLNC

For `CNC(=O)[C@H](Cc1ccccc1)N1CC[C@@](CC(C)C)([C@H](CCNC(=O)c2ccccc2)C(=O)NO)C1=O` [Example 53, [3S-[1(R*),3R*(R*)]]-α^3-[2-(Benzoylamino)ethyl]-N^3-hydroxy-N^1-methyl-3-(2-methylpropyl)-2-oxo-α^1-(phenylmethyl)-1,3-pyrrolidinediacetamide], the Ki [1] was 0.0105 µM, the Ki [2] was 0.00106 µM and the Ki [3] was 0.00069 µM.

For `CC(C)C[C@@]1(CC(=O)NO)CCN([C@@H](Cc2ccccc2)C(=O)NCCN2CCOCC2)C1=O` [Example 54, [S-(R*,R*)]-N^3 -Hydroxy-3-(2-methylpropyl)-N^1-[2-(4-morpholinyl)ethyl]-2-oxo-α^1-(phenylmethyl)-1,3-pyrrolidinediacetamide], the Ki [1] was 0.7 µM, the Ki [2] was 0.07 µM and the Ki [3] was 0.076 µM.

Compound `CC(C)C[C@@]1(CC(=O)NO)CCN(CCc2ccccc2)C1=O` [Example 2, (3S)-N-Hydroxy-3-(2-methylpropyl)-2-oxo-1-(2-phenylethyl)-3-pyrrolidineacetamide] has a Ki [1] of 20.2 µM, a Ki [2] of 3.29 µM and a Ki [3] of 1.04 µM.

In the case of `CC(C)C[C@@]1(CC(=O)NO)CCN([C@@H](Cc2ccccc2)C(=O)NCCc2ccccc2)C1=O` [Example 31, [S-(R*,R*)]-N^3 -Hydroxy-3-(2-methylpropyl)-2-oxo-N^1-(2-phenethyl)-α^1-(phenylmethyl)-1,3-pyrrolidinediacetamide], the Ki [1] is reported as 0.517 µM, the Ki [2] is reported as 0.0193 µM and the Ki [3] is reported as 0.096 µM.

With `CNC(=O)[C@H](CCc1ccccc1)N1CC[C@](CC(=O)NO)(CC(C)C)C1=O` [Example 47, [S-(R*,R*)]-N^3 -Hydroxy-N^1-methyl-3-(2-methylpropyl)-2-oxo-α^1-(2-phenylethyl)-1,3-pyrrolidinediacetamide] the Ki [1] was 0.868 µM, the Ki [2] was 0.0853 µM and the Ki [3] was 0.0815 µM.

Compound `CC(C)C[C@@]1(CC(=O)NO)CCN([C@@H](Cc2ccccc2)C(=O)N2CCOCC2)C1=O` [Example 55, [S-(R*,R*)]-N-Hydroxy-3-(2-methylpropyl)-1-[2-(4-morpholinyl)-2-oxo-1-(phenylmethyl)ethyl]-2-oxo-3-pyrrolidineacetamide] has a Ki [1] of 1.9 µM, a Ki [2] of 0.211 µM and a Ki [3] of 0.75 µM.

Compound `COc1ccc(S(=O)(=O)NC[C@H](C(=O)NO)[C@]2(CC(C)C)CCN(CCc3ccccc3)C2=O)cc1` (relative stereo) [Example 90, N-Hydroxy-α-[[[(4-methoxyphenyl)sulfonyl]amino]methyl]-3-(2-methylpropyl)-2-oxo-1-(2-phenylethyl)-3-pyrrolidineacetamide] has a Ki [1] of 1.77 µM, a Ki [2] of 0.624 µM and a Ki [3] of 0.052 µM.

With `CC(C)C[C@@]1([C@@H](CCN2C(=O)c3ccc(F)cc3C2=O)C(=O)NO)CCN(CCc2ccccc2)C1=O` [Example 63, [R-(R*,S*)]-5-Fluoro-1,3-dihydro-N-hydroxy-α-[3-(2-methylpropyl)-2-oxo-1-(2-phenylethyl)-3-pyrrolidinyl]-1,3-dioxo-2H-isoindole-2-butanamide] the Ki [1] was 0.058 µM, the Ki [2] was 0.032 µM and the Ki [3] was 1.5 µM.

Work on `CC(C)C[C@@]1([C@@H](CCNC(=O)c2ccc(F)cc2)C(=O)NO)CCN(CCc2ccccc2)C1=O` (relative stereo) [Example 75, α-[2-[(4-Fluorobenzoyl)amino]ethyl]-N-hydroxy-3-(2-methylpropyl)-2-oxo-1-(2-phenylethyl)-3-pyrrolidineacetamide] yielded a Ki [1] of 0.295 µM, a Ki [2] of 0.264 µM and a Ki [3] of 0.074 µM.

`CC(C)C[C@@]1([C@@H](CCN2C(=O)c3ccc(F)cc3C2=O)C(=O)NO)CCN(CCc2ccccc2)C1=O` (relative stereo) [Example 14, α-[2-(5-Fluoro-1,3-dihydro-1,3-dioxo-2H-isoindol-2-yl)ethyl]-N-hydroxy-3-(2-methylpropyl)-2-oxo-1-(2-phenylethyl)-3-pyrrolidineacetamide] was tested, and the Ki [1] was 0.046 µM, the Ki [2] was 0.097 µM and the Ki [3] was 0.533 µM.

Compound `O=C(NCC[C@@H](C(=O)NO)[C@]1(CCCO)CCN(CCc2ccccc2)C1=O)c1ccc(F)c(F)c1` (relative stereo) [Example 94, α-[2-[(3,4-Difluorobenzoyl)amino]ethyl]-N-hydroxy-3-(3-hydroxypropyl)-2-oxo-1-(2-phenylethyl)-3-pyrrolidineacetamide] has a Ki [1] of 0.016 µM, a Ki [2] of 0.0012 µM and a Ki [3] of 0.0134 µM.

With `CC(C)C[C@@]1(CC(=O)NO)CCN([C@@H](Cc2ccccc2)C(=O)NCc2ccc(F)cc2)C1=O` [Example 46, [S-(R*,R*)]-N^1-(4-Fluorophenylmethyl)-N^3-hydroxy-3-(2-methylpropyl)-2-oxo-α^1-(phenylmethyl)-1,3-pyrrolidinediacetamide] the Ki [1] was 2.1 µM, the Ki [2] was 0.04 µM and the Ki [3] was 0.035 µM.

`CC(C)C[C@@]1([C@@H](CCNC(=O)c2cccc(F)c2)C(=O)NO)CCN(CCc2ccccc2)C1=O` [Example 74, [R-(R*,S*)-α-[2-[(3-Fluorobenzoyl)amino]ethyl]-N-hydroxy-3-(2-methylpropyl)-2-oxo-1-(2-phenylethyl)-3-pyrrolidineacetamide] gave a Ki [1] of 0.052 µM, a Ki [2] of 0.021 µM and a Ki [3] of 0.026 µM.

In the case of `CC(C)C[C@@]1(CC(=O)NO)CCN([C@@H](Cc2ccccc2)C(=O)NCc2ccccn2)C1=O` [Example 40, [S-(R*,R*)]-N^3 -Hydroxy-3-(2-methylpropyl)-2-oxo-α^1-(phenylmethyl)-N^1-(2-pyridinylmethyl)-1,3-pyrrolidinediacetamide], the Ki [1] is reported as 1.99 µM, the Ki [2] is reported as 0.0105 µM and the Ki [3] is reported as 0.037 µM.

`CC(C)C[C@@]1([C@@H](CCN2C(=O)c3ccc(N)cc3C2=O)C(=O)NO)CCN(CCc2ccccc2)C1=O` (relative stereo) [Example 9, α-[2-(5-Amino-1,3-dihydro-1,3-dioxo-2H-isoindol-2-yl)ethyl]-N-hydroxy-3-(2-methylpropyl)-2-oxo-1-(2-phenylethyl)-3-pyrrolidineacetamide] showed a Ki [1] of 0.903 µM, a Ki [2] of 0.78 µM and a Ki [3] of 14.3 µM.

`CC(C)C[C@@]1(CC(=O)NO)CCN([C@@H](Cc2ccccc2)C(=O)NCc2ccncc2)C1=O` [Example 45, [S-(R*,R*)]-N^3 -Hydroxy-3-(2-methylpropyl)-2-oxo-α^1-(phenylmethyl)-N^1-(4-pyridinylmethyl)-1,3-pyrrolidinediacetamide] was tested, and the Ki [1] was 1.01 µM, the Ki [2] was 0.017 µM and the Ki [3] was 0.0235 µM.

`CNC(=O)[C@H](Cc1ccccc1)N1CC[C@](CC(=O)NO)(CC2CCCC2)C1=O` [Example 52, [S-(R*,R*)]-3-(Cyclopentylmethyl)-N^3-hydroxy-N^1-methyl-2-oxo-α^1-(phenylmethyl)-1,3-pyrrolidinediacetamide] gave a Ki [1] of 0.187 µM, a Ki [2] of 0.0011 µM and a Ki [3] of 0.0013 µM.

Work on `CC(C)C[C@@]1([C@H](NS(=O)(=O)c2ccc(F)cc2)C(=O)NO)CCN(CCc2ccccc2)C1=O` (relative stereo) [Example 93, α-[[(4-Fluorophenyl)sulfonyl]amino]-N-hydroxy-3-(2-methylpropyl)-2-oxo-1-(2-phenylethyl)-3-pyrrolidineacetamide] yielded a Ki [1] of 2.08 µM, a Ki [2] of 1.1 µM and a Ki [3] of 0.098 µM.

In the case of `CC(C)C[C@@]1([C@@H](CN2C(=O)c3ccccc3C2=O)C(=O)NO)CCN(CCc2ccccc2)C1=O` (relative stereo) [Example 16, α-[2-(1,3-Dihydro-1,3-dioxo-2H-isoindol-2-yl)methyl]-N-hydroxy-3-(2-methylpropyl)-2-oxo-1-(2-phenylethyl)-3-pyrrolidineacetamide], the Ki [1] is reported as 0.0924 µM, the Ki [2] is reported as 2.87 µM and the Ki [3] is reported as 14.2 µM.
